Source: article PMC11748629, “Unidirectional MCM translocation away from ORC drives origin licensing” (Nature Communications, 2025)

Legend:
Experiment in all cases: cryo-EM structure
MCM-Cdt1 complex [1] = test system: T1, MCM-Cdt1 complex; format: binding, Saccharomyces cerevisiae; conditions: OCCM-Mcm2RA complex on ARS1 DNA with ORC-Cdc6; 3 mM ATP added, Mg2+, pH 7.6, 30 C; all six MCM ATPase sites occupied, ADP assigned from density
T1 construct: gene MCM2; with Cell division cycle protein CDT1

MCM-Cdt1 complex [2] = test system: T1, MCM-Cdt1 complex; format: binding, Saccharomyces cerevisiae; conditions: OC1M-Mcm5RA complex (no Cdc6) on ARS1 DNA with ORC; 2 mM ATP added, Mg2+, pH 7.6, 30 C; sites Mcm5/2, 2/6, 6/4 and 4/7; conformers 1 and 2
ORC complex = biological target: T2, ORC complex (Saccharomyces cerevisiae, UniProt P50874+P54784+P54790+P54791); format: binding; conditions: wild-type ORC in OCCM-Mcm2RA (sites Orc4-Orc1, Orc5-Orc4, Orc3-Orc5) and in OC1M-Mcm5RA (Orc5-Orc4, Orc3-Orc5); 2-3 mM ATP, Mg2+, pH 7.6, 30 C
T2 construct: gene ORC1; with Origin recognition complex subunit 2; Origin recognition complex subunit 6
T2 sequence (P54784 whole entry): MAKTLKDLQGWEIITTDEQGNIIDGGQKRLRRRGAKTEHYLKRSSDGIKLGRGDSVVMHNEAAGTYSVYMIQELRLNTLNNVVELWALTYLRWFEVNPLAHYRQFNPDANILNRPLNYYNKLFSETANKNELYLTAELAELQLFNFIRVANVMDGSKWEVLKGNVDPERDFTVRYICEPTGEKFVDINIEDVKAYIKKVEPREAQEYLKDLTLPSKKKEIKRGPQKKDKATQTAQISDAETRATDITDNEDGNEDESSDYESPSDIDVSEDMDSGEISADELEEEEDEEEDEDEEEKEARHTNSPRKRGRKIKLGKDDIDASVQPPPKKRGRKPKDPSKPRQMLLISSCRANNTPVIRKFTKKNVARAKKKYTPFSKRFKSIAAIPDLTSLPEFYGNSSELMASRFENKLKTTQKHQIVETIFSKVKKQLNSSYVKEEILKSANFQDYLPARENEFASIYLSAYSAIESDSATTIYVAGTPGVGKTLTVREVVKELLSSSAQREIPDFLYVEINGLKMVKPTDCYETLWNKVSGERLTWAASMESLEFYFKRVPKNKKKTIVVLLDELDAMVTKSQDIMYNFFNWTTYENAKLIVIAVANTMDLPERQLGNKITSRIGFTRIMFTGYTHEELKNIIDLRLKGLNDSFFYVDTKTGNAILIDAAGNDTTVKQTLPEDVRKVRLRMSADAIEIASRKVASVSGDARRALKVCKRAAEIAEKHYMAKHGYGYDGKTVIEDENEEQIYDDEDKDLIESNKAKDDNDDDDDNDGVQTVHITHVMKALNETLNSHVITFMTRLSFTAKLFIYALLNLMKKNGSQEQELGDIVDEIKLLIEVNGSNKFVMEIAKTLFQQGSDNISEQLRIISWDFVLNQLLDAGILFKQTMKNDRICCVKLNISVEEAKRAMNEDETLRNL
T2 sequence (P54790 2-616): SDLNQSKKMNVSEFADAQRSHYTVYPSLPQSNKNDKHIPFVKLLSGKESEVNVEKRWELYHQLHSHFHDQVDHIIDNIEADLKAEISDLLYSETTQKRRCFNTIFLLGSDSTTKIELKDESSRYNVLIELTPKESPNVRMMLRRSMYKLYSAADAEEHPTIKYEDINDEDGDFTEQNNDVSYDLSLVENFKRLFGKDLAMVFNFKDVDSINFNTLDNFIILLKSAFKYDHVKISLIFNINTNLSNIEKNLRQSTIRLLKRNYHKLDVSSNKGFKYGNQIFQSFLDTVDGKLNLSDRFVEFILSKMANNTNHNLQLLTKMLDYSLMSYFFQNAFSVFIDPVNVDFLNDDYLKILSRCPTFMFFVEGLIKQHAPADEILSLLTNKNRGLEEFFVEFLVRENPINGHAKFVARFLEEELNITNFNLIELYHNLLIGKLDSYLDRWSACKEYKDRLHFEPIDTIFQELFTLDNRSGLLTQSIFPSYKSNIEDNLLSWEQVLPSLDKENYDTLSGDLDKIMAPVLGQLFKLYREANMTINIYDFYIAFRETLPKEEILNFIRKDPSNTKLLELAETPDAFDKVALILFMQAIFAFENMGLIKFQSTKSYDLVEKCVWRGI
T2 sequence (P54791 whole entry): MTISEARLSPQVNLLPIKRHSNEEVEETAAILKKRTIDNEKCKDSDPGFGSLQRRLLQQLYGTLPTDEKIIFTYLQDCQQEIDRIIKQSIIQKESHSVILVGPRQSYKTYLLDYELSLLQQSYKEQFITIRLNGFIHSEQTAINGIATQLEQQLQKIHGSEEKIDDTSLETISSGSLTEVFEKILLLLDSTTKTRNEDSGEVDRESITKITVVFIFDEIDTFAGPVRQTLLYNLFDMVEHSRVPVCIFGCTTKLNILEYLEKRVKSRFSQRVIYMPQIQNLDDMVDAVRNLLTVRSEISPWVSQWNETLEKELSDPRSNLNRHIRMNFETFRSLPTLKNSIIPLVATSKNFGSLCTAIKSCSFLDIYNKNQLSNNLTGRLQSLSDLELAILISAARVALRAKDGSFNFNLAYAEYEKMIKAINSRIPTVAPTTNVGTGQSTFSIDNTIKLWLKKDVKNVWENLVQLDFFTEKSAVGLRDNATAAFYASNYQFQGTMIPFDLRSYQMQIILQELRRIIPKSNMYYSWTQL
T2 sequence (P50874 whole entry): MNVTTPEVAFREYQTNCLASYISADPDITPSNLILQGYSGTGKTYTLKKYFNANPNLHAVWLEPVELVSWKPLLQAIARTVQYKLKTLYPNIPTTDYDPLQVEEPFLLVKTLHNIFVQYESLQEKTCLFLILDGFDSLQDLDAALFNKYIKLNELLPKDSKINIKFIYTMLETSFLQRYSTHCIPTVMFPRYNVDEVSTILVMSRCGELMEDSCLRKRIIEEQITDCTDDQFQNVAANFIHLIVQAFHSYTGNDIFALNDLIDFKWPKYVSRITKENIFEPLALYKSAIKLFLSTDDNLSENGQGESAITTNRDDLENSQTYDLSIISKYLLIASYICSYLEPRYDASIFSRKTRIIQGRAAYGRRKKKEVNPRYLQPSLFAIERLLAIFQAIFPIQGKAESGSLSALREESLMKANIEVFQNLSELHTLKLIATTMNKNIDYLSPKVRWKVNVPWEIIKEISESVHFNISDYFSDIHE
T2 sequence (P32833 whole entry partner): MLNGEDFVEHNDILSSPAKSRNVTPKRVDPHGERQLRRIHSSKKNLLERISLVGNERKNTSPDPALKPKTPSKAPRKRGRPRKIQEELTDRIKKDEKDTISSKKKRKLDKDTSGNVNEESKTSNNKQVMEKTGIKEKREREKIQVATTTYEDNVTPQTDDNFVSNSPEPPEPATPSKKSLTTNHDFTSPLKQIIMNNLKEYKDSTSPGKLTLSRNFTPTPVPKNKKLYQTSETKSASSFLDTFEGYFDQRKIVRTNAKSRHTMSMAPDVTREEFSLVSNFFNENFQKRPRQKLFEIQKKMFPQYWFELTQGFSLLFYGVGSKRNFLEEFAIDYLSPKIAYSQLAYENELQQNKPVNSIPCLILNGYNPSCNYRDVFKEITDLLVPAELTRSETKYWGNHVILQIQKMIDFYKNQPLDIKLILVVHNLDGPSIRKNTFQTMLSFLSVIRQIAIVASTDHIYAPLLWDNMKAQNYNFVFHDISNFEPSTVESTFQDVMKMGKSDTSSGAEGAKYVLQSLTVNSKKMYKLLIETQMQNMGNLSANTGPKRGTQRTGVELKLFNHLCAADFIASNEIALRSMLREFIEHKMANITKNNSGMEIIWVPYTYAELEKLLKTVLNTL
T2 sequence (P38826 whole entry partner): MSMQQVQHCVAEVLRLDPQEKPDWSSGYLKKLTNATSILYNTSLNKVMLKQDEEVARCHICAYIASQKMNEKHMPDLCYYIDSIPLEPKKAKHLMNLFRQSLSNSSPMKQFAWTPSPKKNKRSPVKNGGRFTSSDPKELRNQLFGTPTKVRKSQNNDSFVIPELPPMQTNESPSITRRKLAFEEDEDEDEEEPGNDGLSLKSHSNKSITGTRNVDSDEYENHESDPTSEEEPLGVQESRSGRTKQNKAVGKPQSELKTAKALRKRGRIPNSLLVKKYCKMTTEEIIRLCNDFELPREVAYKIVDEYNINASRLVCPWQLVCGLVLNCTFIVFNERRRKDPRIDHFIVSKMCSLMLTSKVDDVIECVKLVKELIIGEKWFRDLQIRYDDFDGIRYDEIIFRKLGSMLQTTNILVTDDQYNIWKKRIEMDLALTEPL

SMILES | cryo-EM structure (MCM-Cdt1 complex [1]) | cryo-EM structure (MCM-Cdt1 complex [2]) | cryo-EM structure (ORC complex)
Nc1ncnc2c1ncn2[C@@H]1O[C@H](COP(=O)(O)OP(=O)(O)O)[C@@H](O)[C@H]1O [ADP] | All six ATPase sites were identified as occupied, with ADP modelled based on the density | Four ATPase sites were identified as occupied, with ADP modelled based on the density | –
Nc1ncnc2c1ncn2[C@@H]1O[C@H](COP(=O)(O)OP(=O)(O)OP(=O)(O)O)[C@@H](O)[C@H]1O [ATP] | – | – | ATP can only be observed in the Orc4-Orc1, Orc5-4 and Orc3-5 nucleotide-binding sites
